The source of these data is patent publication US12202840B2, “Compounds for the treatment or alleviation of disorders associated with Tau aggregates” (AC Immune SA, priority 2018, dated 2025).

Assay [1] addresses T1, flTau aggregates (longest isoform of human Tau, 2N4R; 441 amino acids) (Homo sapiens, UniProt P10636).
T1 construct: 35 μM of recombinant full-length (fl)Tau in PBS were aggregated for 24 hours; made in house; host or cells: bacteria
As to the kind of experiment: Full-length Tau (flTau) disaggregation assay by Thioflavin T (ThT). As to conditions: 2 μM flTau aggregates, 160 to 0.04 μM compound, 30 minutes RT, ThT fluorescence. In kind it is biochemical. The procedure:
Biological Assay Description Full-Length Tau (flTau) Disaggregation Assay by Thioflavin T (ThT)
The longest isoform of human Tau (2N4R; 441 amino acids) was expressed in bacteria and purified. For the Tau disaggregation assay by ThT, 35 μM of recombinant full-length (fl)Tau in PBS were aggregated for 24 hours at 37° C. in presence of 50 μM of heparin (Sigma-Aldrich) and 10 mM of DTT (Sigma-Aldrich) under shaking at 750 RPM. Compounds were dissolved in anhydrous dimethyl sulfoxide (DMSO, Sigma-Aldrich) to reach a concentration of 10 mM.
(§1) flTau aggregates and serial dilutions of compounds were mixed together in PBS (volume 50 μL) to a final concentration of 2 μM of flTau aggregates and from 160 to 0.04 μM of compounds. The mixture was incubated for 30 minutes at room temperature (RT), then 40 μL of this mixture were transferred into a black 384-well plate assay (Perkin-Elmer) and mixed with 10 μL of 100 μM ThT in 250 mM glycine (both from Sigma-Aldrich) in PBS. Fluorescence (relative fluorescence units; RFU) was measured in monoplicate or duplicate on a Tecan reader (excitation: 440 nm; emission: 485 nm). Percentage of flTau disaggregation was then calculated and the halfmaximal effective concentration (EC50) was determined using GraphPad Prism version 5 (GraphPad Software) assuming a one-binding site fitting model.

Assay [2] relates to human neuroblastoma cell line overexpressing the full-length form of human Tau carrying the P301L mutation. As to the kind of experiment: Reduction of intracellular Tau aggregation (AlphaLISA). As to conditions: compound at 5 μM, 24 h; aggregated Tau normalized to total Tau, relative to DMSO-treated cells. It is filed as cell-based. The procedure:
Reduction of Intracellular Tau Aggregation
A human neuroblastoma cell line overexpressing the full-length form of human Tau carrying the P301L mutation was cultured in complete medium [DMEM-F12 4.5 g/L Glutamax (Invitrogen), 15% FBS (Biochrom), 1% Peni/Strep (Invitrogen) supplemented with 2.5 μg/ml of G418 (Sigma-Aldrich) selection antibiotic]. The day before the experiment 5×10^5 cells/well were plated in a 6 well plate in 3 mL of complete medium. The next day, cells were incubated with DMSO or a compound of the present invention at a 5 μM for additional 24 h at 37° C. After incubation, cells were trypsinized, resupsended in 100 μl of homogenization buffer [25 mM Tris-HCl pH 7.4, 150 mM NaCl, 1 mM EDTA, 1 mM EGTA containing phosphatase inhibitors (30 mM NaF, 0.2 mM Na3VO4, 1 nM Okadaic acid, 1 mM PMSF, 5 mM Na4P2O7) and protease inhibitor cocktail (Complete™, Roche)], and then physically lysed with three rapid cycles of freezing and thawing. Samples were then directly tested in the AlphaLISA assay.
Phosphorylated, aggregated, and total Tau were quantified by AlphaLisa using the following antibody pairs: • HT7-Acceptor beads+biotin (BT)-Tau13-Donor beads: Total Tau • HT7-Acceptor beads+biotin (BT)-HT7-Donor beads: Aggregated human Tau
The Tau13 (Abcam) was biotinylated using EZ-Link® NHS-PEO Solid Phase biotinylation kit (Thermo Scientific), while the HT7-biotin was from a commercial source (Thermo Scientific).
For each antibody pairs the concentration of acceptor beads and biotinylated antibodies was optimized. All samples were first tested in a dilution series in PBS in order to identify the linear range and optimal dilution for each sample and assay. For the final protocol, the following reagents were added in a 384-well white OptiPlate (Perkin Elmer): • 5 μL of test diluted sample • 20 μL of the mixture biotin-mAb acceptor beads at the following final concentrations: • HT7-BT at 1.25 nM in combination with HT7-Acc beads at 10 μg/ml • Tau13-BT at 5 nM in combination with HT7-Acc beads at 2.5 μg/ml
After incubation of this mixture at room temperature for 1 h, 25 μL of Streptavidin Donor beads (Perkin Elmer) at 25 μg/mL were added in the dark. Plates were analyzed after 30 min incubation using the EnSpire Alpha instrument and EnSpire Workstation version 3.00.
Data for aggregated Tau were normalized to total Tau and then expressed as percentage of the DMSO-treated cells.

Assay [3] deals with T2, K18 aggregates (Tau K18 fragment, amino acids 244 to 372 of human Tau441) (Homo sapiens, UniProt P10636).
T2 construct: encompassing amino acids 244 to 372 of the longest isoform (2N4R) of human Tau441; host or cells: bacteria
T2 sequence (P10636 561-689): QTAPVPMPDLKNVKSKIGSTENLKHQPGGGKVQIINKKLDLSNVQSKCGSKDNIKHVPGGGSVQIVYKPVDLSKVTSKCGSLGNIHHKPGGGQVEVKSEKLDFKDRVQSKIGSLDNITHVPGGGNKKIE
In words: Tau K18 disaggregation assay by ThT. The following applies: 2 μM K18 aggregates, 160 to 0.04 μM compound, 30 minutes RT, ThT fluorescence; read-out: TauK18 disaggregation EC50. In kind it is biochemical. The procedure: Tau K18 Disaggregation Assay by ThT
as §1, with “The Tau K18 fragment, encompassing amino acids 244 to 372 of the longest isoform (2N4R) of human Tau441, was expressed in bacteria and purified or bought from SignalChem. For the K18 disaggregation assay by ThT, 35 μM of recombinant K18 in PBS were aggregated for 24 hours at 37° C. in presence of 50 μM of heparin (Sigma-Aldrich) and 10 mM of DTT (Sigma-Aldrich) under shaking at 750 RPM. Compounds were dissolved in anhydrous dimethyl sulfoxide (DMSO, Sigma-Aldrich) to reach a concentration of 10 mM. K18 aggregates” for “flTau aggregates”, “of K18” for “of flTau”, “and half maximal” for “and the halfmaximal”

Each structure is given as a SMILES string. Bounds are passed on as bounds.

T1 sequence (P10636 1-441 isoform P10636-8): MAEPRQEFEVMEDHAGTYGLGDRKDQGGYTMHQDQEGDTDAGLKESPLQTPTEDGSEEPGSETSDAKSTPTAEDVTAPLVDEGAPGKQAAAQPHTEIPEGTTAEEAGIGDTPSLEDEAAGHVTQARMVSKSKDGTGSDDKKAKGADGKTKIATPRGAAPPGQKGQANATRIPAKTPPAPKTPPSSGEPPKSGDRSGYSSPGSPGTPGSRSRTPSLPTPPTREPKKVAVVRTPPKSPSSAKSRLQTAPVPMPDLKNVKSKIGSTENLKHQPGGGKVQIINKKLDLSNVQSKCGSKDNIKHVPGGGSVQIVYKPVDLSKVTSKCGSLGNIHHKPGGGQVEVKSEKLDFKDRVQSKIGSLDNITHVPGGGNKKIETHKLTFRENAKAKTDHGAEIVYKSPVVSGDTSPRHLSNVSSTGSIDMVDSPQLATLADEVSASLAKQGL

`CC(C)N1CCc2c(c3ccc(Nc4ccc5nc(N6CCOCC6)sc5c4)nc3n2C)C1` [Example 1]: the EC50 – broadly, the concentration that produces a half-maximal response – is below 10 µM in assay [1] and 10 to 25 µM in assay [3]. Besides, in assay [2], the “% Reduction of intracellular Tau aggregation” value is listed as “+ (+ %25 < x < 10)”.
The like results for `CN(C)[C@@H]1CCc2c(c3ccc(Nc4ccc5sc(N6CCOCC6)nc5c4)nc3n2C)C1` [Example 2] were, in that order, below 10 µM, below 10 µM and “+ (+ %25 < x < 10)”.
On the same counts, the results for `CN(C)[C@@H]1CCc2c(c3ccc(Nc4ccc5nc(N6CCOCC6)sc5c4)nc3n2C)C1` [Example 12] are below 10 µM, below 10 µM and “++ (++ %50 < x < 25)”.
